Measurements reported in patent US20250320202A1, “PRMT5 INHIBITOR, PREPARATION METHOD THEREFOR, AND PHARMACEUTICAL USE THEREOF” (Abbisko Therapeutics Co., Ltd., priority 2022, published 2025).

Key:
[1] = test system: HCT116 MTAP knockout cells; assay: Human colon cancer HCT116 cell proliferation inhibition test (CellTiter-Glo, 6 days), MTAP knockout cells; type: cell-based; conditions: HCT-116, 144 h
Description: (§1) 1. HCT116 MTAP knockout and MTAP wild-type cells were plated in 96-well flat bottom plates, and cultured overnight with McCoy's 5A medium containing 10% fetal bovine serum+1% penicillin-streptomycin at 37° C. and 5% CO2.
(§2) 2. On the next day, the compound was dissolved with DMSO, diluted with DMSO and medium successively and transferred to the cell plate. The final concentration of the compound was 10 μM, the compound was diluted 4 times, with 9 concentration gradients, and DMSO control was added.
(§3) 3. Cells that have not been treated with the compound were removed. CellTiter-Glo Luminescent Cell Viability Assay (Promega) was used to detect cell viability, the operation was performed with reference to the package insert of the kit, and then the cell plate was placed on EnVision Multilabel Reader to detect the cold light signal.
(§4) 4. Meanwhile, the cell plate treated with the compound was cultured at 37° C. and 5% CO2 for 6 consecutive days.
(§5) 5. Then, CellTiter-Glo was also used to detect cell viability.
(§6) 6. Finally, the four-parameter dose-response curve module of GraphPad Prism v 9.2.0 software was used to plot the dose-response curve and calculate the IC50 for proliferation inhibition (unit: nM).

[2] = test system: HCT116 MTAP wild-type cells; assay: Human colon cancer HCT116 cell proliferation inhibition test (CellTiter-Glo, 6 days), MTAP wild-type cells; type: cell-based; conditions: HCT-116, 144 h
Description: as §1, §2, §3, §4, §5, §6

Compound | IC50 [1] [nM] | IC50 [2] [nM]
Cn1cc(N(Cc2ccc(C(F)(F)F)cn2)C(=O)c2cc3c(cc2F)nc(N)c2cnn(C)c23)cn1 [compound 3, reference compound] | 9 | 278
Cn1cc(N(C(=O)c2cc3c4c(c(N)nc3cc2F)COC4)[C@@H]2CCc3cc(C(F)(F)F)ccc32)cn1 [Example 220, (R)-4-amino-7-fluoro-N-(1-methyl-1H-pyrazol-4-yl)-N-(5-(trifluoromethyl)-2,3-dihydro-1H-inden-1-yl)-1,3-dihydrofuro[3,4-c]quinolin-8-carboxamide] | 17 | 335
Cc1cc2nc(N)c3ccncc3c2cc1C(=O)N(CC1CC1)[C@@H]1COc2nc(C(F)(F)F)ccc21 [Example 230, (S)-5-amino-N-(cyclopropylmethyl)-8-methyl-N-(6-(trifluoromethyl)-2,3-dihydrofuro[2,3-b]pyridin-3-yl)benzo[c][2,6]naphthyridin-9-carboxamide] | 13 | 145
Nc1nc2cc(Cl)c(C(=O)N(CC3CC3)[C@@H]3COc4nc(C(F)(F)F)ccc43)cc2c2cnccc12 [Example 232, (S)-5-amino-8-chloro-N-(cyclopropylmethyl)-N-(6-(trifluoromethyl)-2,3-dihydrofuro[2,3-b]pyridin-3-yl)benzo[c][2,6]naphthyridin-9-carboxamide] | 10 | 363
Cc1cc2nc(N)c3ccncc3c2cc1C(=O)N(CC1CC1)[C@@H]1CCc2nc(C(F)(F)F)ccc21 [Example 236, (R)-5-amino-N-(cyclopropylmethyl)-8-methyl-N-(2-(trifluoromethyl)-6,7-dihydro-5H-cyclopenta[b]pyridin-5-yl)benzo[c][2,6]naphthyridin-9-carboxamide] | 9 | 227
Nc1nc2ccc(C(=O)N(c3cnsc3)[C@@H]3CCc4cc(C(F)(F)F)ccc43)cc2c2cnccc12 [Example 204, (R)-5-amino-N-(isothiazol-4-yl)-N-(5-(trifluoromethyl)-2,3-dihydro-1H-inden-1-yl)benzo[c][2,6]naphthyridin-9-carboxamide] | 6 | 293
Cn1cc(N(C(=O)c2cc3c(cc2F)nc(N)c2cnn(C)c23)[C@@H]2CCc3cc(C(F)(F)F)ccc32)cn1 [Example 229, (R)-4-amino-7-fluoro-1-methyl-N-(1-methyl-1H-pyrazol-4-yl)-N-(5-(trifluoromethyl)-2,3-dihydro-1H-inden-1-yl)-1H-pyrazolo[4,3-c]quinolin-8-carboxamide] | 3 | 61
Nc1nc2cc(F)c(C(=O)N(CC3CC3)[C@@H]3CCc4nc(C(F)(F)F)ccc43)cc2c2cnccc12 [Example 237, (R)-5-amino-N-(cyclopropylmethyl)-8-fluoro-N-(2-(trifluoromethyl)-6,7-dihydro-5H-cyclopenta[b]pyridin-5-yl)benzo[c][2,6]naphthyridin-9-carboxamide] | 20 | 788
Cn1ncc2c(N)nc3cc(F)c(C(=O)N(c4cnsc4)[C@@H]4CCc5cc(C(F)(F)F)ccc54)cc3c21 [Example 203, (R)-4-amino-7-fluoro-N-(isothiazol-4-yl)-1-methyl-N-(5-(trifluoromethyl)-2,3-dihydro-1H-inden-1-yl)-1H-pyrazolo[4,3-c]quinolin-8-carboxamide] | 9 | 104
Cn1cc(N(C(=O)c2ccc3nc(N)c4c(cnn4C)c3c2)[C@@H]2COc3cc(C(F)(F)F)ccc32)cn1 [Example 187, (S)-4-amino-3-methyl-N-(1-methyl-1H-pyrazol-4-yl)-N-(6-(trifluoromethyl)-2,3-dihydrobenzofuran-3-yl)-3H-pyrazolo[3,4-c]quinolin-8-carboxamide] | 50 | 2440
Cn1ncc2c(N)nc3cc(O)c(C(=O)N(c4nccs4)[C@@H]4CCc5cc(C(F)(F)F)ccc54)cc3c21 [Example 184, (R)-4-amino-7-hydroxy-1-methyl-N-(thiazol-2-yl)-N-(5-(trifluoromethyl)-2,3-dihydro-1H-inden-1-yl)-1H-pyrazolo[4,3-c]quinolin-8-carboxamide] | > 10000 | > 10000
Cn1cc(N(C(=O)c2cc3c(cc2F)nc(N)c2cnn(C)c23)[C@H]2COc3cc(C(F)(F)F)ccc32)cn1 [Example 206, (R)-4-amino-7-fluoro-1-methyl-N-(1-methyl-1H-pyrazol-4-yl)-N-(6-(trifluoromethyl)-2,3-dihydrobenzofuran-3-yl)-1H-pyrazolo[4,3-c]quinolin-8-carboxamide] | 82 | 8470
Cn1cc(N(C(=O)c2ccc3nc(N)c4c(cnn4C)c3c2)[C@H]2COc3cc(C(F)(F)F)ccc32)cn1 [Example 188, (R)-4-amino-3-methyl-N-(1-methyl-1H-pyrazol-4-yl)-N-(6-(trifluoromethyl)-2,3-dihydrobenzofuran-3-yl)-3H-pyrazolo[3,4-c]quinolin-8-carboxamide] | 2640 | > 10000
Nc1nc2ccc(C(=O)N(CC3CC3)[C@@H]3COc4nc(C(F)(F)F)ccc43)cc2c2cnccc12 [Example 195, (S)-5-amino-N-(cyclopropylmethyl)-N-(6-(trifluoromethyl)-2,3-dihydrofuro[2,3-b]pyridin-3-yl)benzo[c][2,6]naphthyridin-9-carboxamide] | 8.6 | 423
Nc1nc2ccc(C(=O)N(c3ncccn3)C3CCc4cc(C(F)(F)F)ccc43)cc2c2cnccc12 (stereo not shown) [Example 210, 5-amino-N-(pyrimidin-2-yl)-N-(5-(trifluoromethyl)-2,3-dihydro-1H-inden-1-yl)benzo[c][2,6]naphthyridin-9-carboxamide] | 63 | 7400
CCN(C(=O)c1cc2c(cc1F)nc(N)c1cnn(C)c12)C1CCc2cc(C(F)(F)F)ccc21 (stereo not shown) [Reference Compound 1, reference compound] | 54 | 696
Cn1ccc(N(C(=O)c2cc3c(cc2F)nc(N)c2cnn(C)c23)C2CCc3cc(C(F)(F)F)ccc32)n1 (stereo not shown) [Example 168, 4-amino-7-fluoro-1-methyl-N-(1-methyl-1H-pyrazol-3-yl)-N-(5-(trifluoromethyl)-2,3-dihydro-1H-inden-1-yl)-1H-pyrazolo[4,3-c]quinolin-8-carboxamide] | 0.3 | 276
Nc1nc2cc(F)c(C(=O)N(c3cscn3)[C@@H]3CCc4cc(C(F)(F)F)ccc43)cc2c2c1COC2 [Example 213, (R)-4-amino-7-fluoro-N-(thiazol-4-yl)-N-(5-(trifluoromethyl)-2,3-dihydro-1H-inden-1-yl)-1,3-dihydrofuro[3,4-c]quinolin-8-carboxamide] | 3 | 70
Nc1nc2cc(F)c(C(=O)N(CC3CC3)[C@@H]3COc4nc(C(F)(F)F)ccc43)cc2c2cnccc12 [Example 231, (S)-5-amino-N-(cyclopropylmethyl)-8-fluoro-N-(6-(trifluoromethyl)-2,3-dihydrofuro[2,3-b]pyridin-3-yl)benzo[c][2,6]naphthyridin-9-carboxamide] | 15 | 604
Cn1ncc2c(N)nc3cc(F)c(C(=O)N(CC(F)(F)F)[C@@H]4COc5cc(C(F)(F)F)ccc54)cc3c21 [Example 185, (S)-4-amino-7-fluoro-1-methyl-N-(2,2,2-trifluoroethyl)-N-(6-(trifluoromethyl)-2,3-dihydrobenzofuran-3-yl)-1H-pyrazolo[4,3-c]quinolin-8-carboxamide] | 28 | 1260
